Test results as given in patent US10766864B2, “Morphinan derivatives for the treatment of neuropathic pain” (Nektar Therapeutics, priority 2015, dated 2020).
Read-outs that look alike come from different tables or passages of the source.

Legend:
mu opioid receptor (MOR) = mu opioid receptor (MOR) (Homo sapiens (Human), UniProt P35372); assay: Competitive radioligand binding at MOR ([3H] Naloxone)
Method: (§1) Receptor Binding at MOR and NMDA.
(§2) Affinities of various compounds were measured in vitro using competitive radioligand binding assays. Serial dilutions of test compounds were incubated with membranes prepared from CHO-K1 cells expressing the mu opioid receptor (MOR; for opioid receptor binding) or rat forebrain membranes (for NMDA receptor binding). 2 nM [^3H] Naloxone (MOR) or 0.2 nM [^3H] MK801 (NMDA) were used as the specific, competitive radioligands. 10 uM Naloxone (MOR), or 10 uM MK801 (NMDA) was used to determine non-specific binding. Bound radioactivity was measured using a scintillation counter & IC50 values for test compounds were determined by non-linear regression analysis using a one-site competition model (Graph Pad Prizm). Due to each test compound being solubilized in a buffered system for the assay, the results presented herein reflect the free base activity.

NMDA receptor = assay: Competitive radioligand binding at NMDA receptor ([3H] MK801), rat forebrain membranes; details: 0.2 nM [3H] MK801, reflects free base activity
Method: as §1, §2

[1] = membranes from CHO-K1 cells expressing MOR, 2 nM [3H] Naloxone, reflects free base activity, read-out: MOR IC50

Row | SMILES | IC50 (mu opioid receptor (MOR); [1]) | IC50 (NMDA receptor) | IC50 (mu opioid receptor (MOR))
1 | COCCOCCOCCO[C@H]1CC[C@H]2[C@H]3Cc4ccc(OC)cc4[C@@]2(CCN3C)C1 [Compound 1, (6α)-3-methoxy-6-{2-[2-(2-methoxyethoxy)ethoxy]ethoxy}-17-methylmorphinan] | > 1000 nM | > 10000 nM | –
2 | COCCOCCOCCOCCOCCO[C@H]1CC[C@H]2[C@H]3Cc4ccc(OC)cc4[C@@]2(CCN3C)C1 [Compound 2, (6α)-3-methoxy-17-methyl-6-(2,5,8,11,14-pentaoxahexadecan-16-yloxy)morphinan] | > 1000 nM | > 10000 nM | –
3 | COCCOCCOCCN1CC[C@]23CC(=O)CC[C@H]2[C@H]1Cc1ccc(OC)cc13 [Compound 4, 3-methoxy-17-{2-[2-(2-methoxyethoxy)ethoxy]ethyl}morphinan-6-one] | > 1000 nM | > 10000 nM | –
4 | COCCOCCN1CC[C@]23CC(=O)CC[C@H]2[C@H]1Cc1ccc(OC)cc13 [Compound 5, 3-methoxy-17-[2-(2-methoxyethoxy)ethyl]morphinan-6-one] | – | > 10000 nM | 100 to 1000 nM
5 | COCCOCCOCCN1CC[C@]23CC(=O)CC[C@H]2[C@H]1Cc1ccc(O)cc13 [Compound 6, 3-hydroxy-17-{2-[2-(2-methoxyethoxy)ethoxy]ethyl}morphinan-6-one] | – | > 10000 nM | 100 to 1000 nM
6 | COCCOCCOCCOCCOCCOc1ccc2c(c1)[C@]13CCN(C)[C@H](C2)[C@@H]1CCC(=O)C3 [Compound 8, 17-methyl-3-(2,5,8,11,14-pentaoxahexadecan-16-yloxy)morphinan-6-one] | > 1000 nM | > 10000 nM | –
7 | COCCOCCOCCO[C@H]1CC[C@H]2[C@H]3Cc4ccc(O)cc4[C@@]2(CCN3C)C1 [Compound 9, (6α)-6-{2-[2-(2-methoxyethoxy)ethoxy]ethoxy}-17-methylmorphinan-3-ol] | – | > 10000 nM | 10 to 100 nM
8 | COCCOCCOCCOCCOCCO[C@H]1CC[C@H]2[C@H]3Cc4ccc(O)cc4[C@@]2(CCN3C)C1 [Compound 10, (6α)-17-methyl-6-(2,5,8,11,14-pentaoxahexadecan-16-yloxy)morphinan-3-ol] | 100 to 1000 nM | > 10000 nM | –
9 | COCCN1CC[C@]23CCCC[C@H]2[C@H]1Cc1ccc(OC)cc13 [Compound 11, 3-methoxy-17-(2-methoxyethyl)-morphinan] | – | 1000 to 10000 nM | 100 to 1000 nM
10 | COCCOCCOCCN1CC[C@]23CCCC[C@H]2[C@H]1Cc1ccc(OC)cc13 [Compound 13, 3-methoxy-17-{2-[2-(2-methoxyethoxy)ethoxy]ethyl}-morphinan] | > 1000 nM | > 10000 nM | –
11 | COCCOCCOCCOCCOCCOc1ccc2c(c1)[C@@]13CCCC[C@H]1[C@@H](C2)N(C)CC3 [Compound 14, 17-methyl-3-(2,5,8,11,14-pentaoxahexadecan-16-yloxy)morphinan] | > 1000 nM | > 10000 nM | –
12 | CCNC(=O)N1CC[C@]23CCCC[C@H]2[C@H]1Cc1ccc(OC)cc13 [Compound 17, N-ethyl-3-methoxymorphinan-17-carboxamide] | > 1000 nM | > 10000 nM | –
13 | COCCOc1c(OC)ccc2c1[C@@]13CCCC[C@H]1[C@@H](C2)N(C)CC3 [Compound 21, 3-methoxy-4-(2-methoxyethoxy)-17-methylmorphinan] | – | – | 100 to 1000 nM
14 | COCCNC(=O)Nc1ccc2c(c1)[C@@]13CCCC[C@H]1[C@@H](C2)N(C)CC3 [Compound 23, 1-(2-methoxyethyl)-3-(17-methylmorphinan-3-yl)urea] | – | > 10000 nM | 100 to 1000 nM
15 | COc1ccc(C(=O)Nc2ccc3c(c2)[C@@]24CCCC[C@H]2[C@@H](C3)N(C)CC4)cc1 [Compound 24, 4-methoxy-N-((4bR,8aR,9R)-11-methyl-6,7,8,8a,9,10-hexahydro-5H-9,4b-(epiminoethano)phenanthren-3-yl)benzamide] | – | > 10000 nM | 100 to 1000 nM
16 | COc1cccc(C(=O)Nc2ccc3c(c2)[C@@]24CCCC[C@H]2[C@@H](C3)N(C)CC4)c1 [Compound 25, 3-methoxy-N-((4bR,8aR,9R)-11-methyl-6,7,8,8a,9,10-hexahydro-5H-9,4b-(epiminoethano)phenanthren-3-yl)benzamide] | > 1000 nM | > 10000 nM | –
17 | COc1ccccc1C(=O)Nc1ccc2c(c1)[C@@]13CCCC[C@H]1[C@@H](C2)N(C)CC3 [Compound 26, 2-methoxy-N-((4bR,8aR,9R)-11-methyl-6,7,8,8a,9,10-hexahydro-5H-9,4b-(epiminoethano)phenanthren-3-yl)benzamide] | > 1000 nM | > 10000 nM | –
18 | COc1ccc(NC(=O)Nc2ccc3c(c2)[C@@]24CCCC[C@H]2[C@@H](C3)N(C)CC4)cc1 [Compound 27, 1-(4-methoxyphenyl)-3-(17-methylmorphinan-3-yl)urea] | – | 1000 to 10000 nM | 10 to 100 nM
19 | COc1ccc(Nc2ccc3c(c2)[C@@]24CCCC[C@H]2[C@@H](C3)N(C)CC4)cc1 [Compound 28, N-(4-methoxyphenyl)-17-methylmorphinan-3-amine] | – | 1000 to 10000 nM | 0.1 to 10 nM

Row | SMILES | IC50 (mu opioid receptor (MOR); [1]) | IC50 (NMDA receptor) | IC50 (mu opioid receptor (MOR))
20 | COc1cccc(Nc2ccc3c(c2)[C@@]24CCCC[C@H]2[C@@H](C3)N(C)CC4)c1 [Compound 29, N-(3-methoxyphenyl)-17-methylmorphinan-3-amine] | – | 1000 to 10000 nM | 0.1 to 10 nM
21 | COCCO[C@@H]1CC[C@H]2[C@H]3Cc4ccc(O)cc4[C@@]2(CCN3C)C1 [Compound 31, (6β)-6-(2-methoxyethoxy)-17-methylmorphinan-3-ol] | – | 1000 to 10000 nM | 0.1 to 10 nM
22 | CN1CC[C@]23CCCC[C@H]2[C@H]1Cc1ccc(Nc2ncccn2)cc13 [Compound 32, 17-methyl-N-(pyrimidin-2-yl)morphinan-3-amine] | > 1000 nM | 100 to 1000 nM | –
23 | COCCOCCOc1cccc(Nc2ccc3c(c2)[C@@]24CCCC[C@H]2[C@@H](C3)N(C)CC4)c1 [Compound 34, N-{3-[2-(2-methoxyethoxy)ethoxy]phenyl}-17-methylmorphinan-3-amine] | 0.1 to 10 nM | > 10000 nM | –
24 | COCCOCCOc1ccccc1Nc1ccc2c(c1)[C@@]13CCCC[C@H]1[C@@H](C2)N(C)CC3 [Compound 35, N-{2-[2-(2-methoxyethoxy)ethoxy]phenyl}-17-methylmorphinan-3-amine] | 100 to 1000 nM | > 10000 nM | –
25 | CN1CC[C@]23CCCC[C@H]2[C@H]1Cc1ccc(NS(C)(=O)=O)cc13 [Compound 37, N-(17-methylmorphinan-3-yl)methanesulfonamide] | – | 1000 to 10000 nM | 100 to 1000 nM
26 | COc1ccc(NC(=O)c2ccc3c(c2)[C@@]24CCCC[C@H]2[C@@H](C3)N(C)CC4)cc1 [Compound 38, N-(4-methoxyphenyl)-17-methylmorphinan-3-carboxamide] | – | > 10000 nM | 100 to 1000 nM
27 | COCCOCCNC(=O)c1ccc2c(c1)[C@@]13CCCC[C@H]1[C@@H](C2)N(C)CC3 [Compound 39, N-[2-(2-methoxyethoxy)ethyl]-17-methylmorphinan-3-carboxamide] | – | > 10000 nM | 100 to 1000 nM
28 | CN1CC[C@]23CCCC[C@H]2[C@H]1Cc1ccc(NC(=O)OC(C)(C)C)cc13 [Compound 40, tert-butyl (17-methylmorphinan-3-yl)carbamate] | – | 1000 to 10000 nM | 100 to 1000 nM
29 | COCCOCCOCCNC(=O)c1ccc2c(c1)[C@@]13CCCC[C@H]1[C@@H](C2)N(C)CC3 [Compound 41, N-{2-[2-(2-methoxyethoxy)ethoxy]ethyl}-17-methylmorphinan-3-carboxamide] | > 1000 nM | > 10000 nM | –
30 | COCCOCCOCCOCCOCCOCC(=O)Nc1ccc2c(c1)[C@@]13CCCC[C@H]1[C@@H](C2)N(C)CC3 [Compound 42, N-(17-methylmorphinan-3-yl)-2,5,8,11,14,17-hexaoxanonadecan-19-amide] | 100 to 1000 nM | > 10000 nM | –
31 | CN1CC[C@]23CCCC[C@H]2[C@H]1Cc1ccc(-c2ccncc2)cc13 [Compound 45, 17-methyl-3-(pyridin-4-yl)morphinan] | > 1000 nM | 1000 to 10000 nM | –
32 | COCCOCCOc1cncc(Nc2ccc3c(c2)[C@@]24CCCC[C@H]2[C@@H](C3)N(C)CC4)c1 [Compound 48, N-{5-[2-(2-methoxyethoxy)ethoxy]pyridin-3-yl}-17-methylmorphinan-3-amine] | 10 to 100 nM | > 10000 nM | –
33 | CN1CC[C@]23CCCC[C@H]2[C@H]1Cc1ccc(Nc2ccncc2)cc13 [Compound 49, 17-methyl-N-(pyridin-4-yl)morphinan-3-amine] | – | 0.1 to 100 nM | 100 to 1000 nM
34 | CN1CC[C@]23CCCC[C@H]2[C@H]1Cc1ccc(Nc2ccncn2)cc13 [Compound 50, 17-methyl-N-(pyrimidin-4-yl)morphinan-3-amine] | – | 0.1 to 100 nM | 100 to 1000 nM
35 | CN1CC[C@]23CCCC[C@H]2[C@H]1Cc1ccc(-c2ccoc2)cc13 [Compound 51, 3-(3-furyl)-17-methylmorphinan] | – | 1000 to 10000 nM | 10 to 100 nM
36 | CN1CC[C@]23CCCC[C@H]2[C@H]1Cc1ccc(-c2cnc(N)nc2)cc13 [Compound 52, 5-(17-methylmorphinan-3-yl)pyrimidin-2-amine] | > 1000 nM | 1000 to 10000 nM | –
37 | COCCOCCOCCOCCOCCOCCNc1nc2cc3c(cc2s1)C[C@@H]1[C@@H]2CCCC[C@]32CCN1C [Compound 70, (4aR,5R,11bR)-14-methyl-N-(2,5,8,11,14,17-hexaoxanonadecan-19-yl)-2,3,4,4a,5,6-hexahydro-1H-5,11b-(epiminoethano)phenanthro[3,2-d][1,3]thiazol-9-amine] | – | > 10000 nM | –
